In test [1] the test system is SRS-A induced contraction of guinea pig ileum. Briefly: Guinea pig ileum: inhibition of SRS-A induced contraction (isolated tissue). As to conditions: Cavia porcellus, atropine and chlorpheniramine (1×10^-5 M) present, test drug 5 min before SRS-A, read-out: G.P. Ileum IC50. The test is classed as cell-based. Here is the method:
The tissue is exposed to […] histamine at 1-3 minute intervals until a reproducible response is obtained. Atropine (1×10^-5 M) and chloropheniramine (1×10^-5 M) are added followed by 1-2 biological units of SRS-A. After washing the tissue, the response to BaCl2 (1×10^-3 M) was also noted.

For test [2], the system named is contraction of guinea pig parenchymal tissue by immunological release of SRS-A. Briefly: Guinea pig parenchymal strip: inhibition of contraction by immunological release of SRS-A (isolated tissue). The format is cell-based. As to conditions: Cavia porcellus; egg albumin challenge of sensitized tissue; chlorpheniramine (10^-5 M), indomethacin (10^-4 M); test compound 30 min before challenge. Here is the method: (b) Guinea Pig Parenchymal Strip
The guinea pigs were sacrificed and lungs removed. Strips of subpleural parenchyma were prepared from the left and right diaphragmatic lobes and suspended in a tissue bath under 1 gram of tension. After a one hour equilibration period, a dose response to histamine (10^-7 to 10^-4 M) induced contractions was performed to determine maximal contraction. The tissues were then washed and allowed to relax to baseline. Chlorpheniramine (10^-5 M), indomethacin (10^-4 M) and test compound were added 30 minutes prior to challenge with egg albumin. The response to antigen was measured in milligrams of tension.

What is called IC50 is the concentration that inhibits the measured activity by half.

With `CCCCCCCCCCC[C@@H](SCCC(=O)OC)[C@H](O)CCCCC(=O)OC` (relative stereo) [Example 1, Threo Methyl 6-Hydroxy-7{[2-(methoxycarbonyl)ethyl]thio}octadecanoate], the concentration for half-maximal inhibition (IC50) is 1 µM in test [1] and more than 100 µM in test [2].

Turning to `CCCCCCCCCCC[C@@H](SCCC(=O)O)[C@H](O)CCCCC(=O)O` (relative stereo) [Example 2, Threo 7-(2-Carboxyethyl)thio-6-hydroxyoctadecanoic Acid], the half-maximal inhibitory concentration (IC50) worked out at 9 µM in test [1] and 100 µM in test [2].

As to `CCCCCCCCCCC[C@@H](SCCC(=O)OC)[C@@H](O)CCCCC(=O)OC` (relative stereo) [Example 4, Erythro Methyl 6-Hydroxy-7-{[2-(methoxycarbonyl)ethyl]thio}octadecanoate], the half-inhibitory concentration (IC50) in test [2] came to 1.1 µM.

With `CCCCCCCCCCC[C@@H](SCCC(=O)O)[C@@H](O)CCCCC(=O)O` (relative stereo) [Example 5, Erythro 7-(2-Carboxyethyl)thio-6-hydroxyoctadecanoic Acid], the results for the half-inhibitory concentration (IC50) in test [1] and in test [2] were 0.08 µM and 3.6 µM, respectively.

Turning to `CCCCCCCCCCCC(SC[C@H](N)C(=O)OC)C(O)CCCCC(=O)OC` (stereo partly drawn) [Example 3, Threo S-(5-Hydroxy-1-methoxycarbonyl-6-heptadecyl)-L-cysteine Methyl Ester], the concentration for half-maximal inhibition (IC50) in test [1] was 14 µM; in test [2], more than 100 µM.

For the origin of these results see patent US4469705A, “Saturated leukotriene derivatives as antiallergens” (McNeilab, Inc., priority 1982, dated 1984).
